From patent US20230365559A1, “NOVEL AMINOPYRIDINES AND THEIR USE IN TREATING CANCER” (priority 2020, published 2023)
Where “and” joins values, the source holds several entries; their conditions need not be identical. Equal values may be shown once. Read-outs that look alike come from different tables or passages of the source.

Columns and labels:
[1] = target: human DNA-PK (Homo sapiens, UniProt P78527); assay: Inhibition of DNA-PKcs kinase activity, HotSpot assay (Reaction Biology), [γ-33P]-ATP phosphorylation of peptide substrate; format: biochemical
[2] = target: human PI3Kα (p110α/p85α) (Homo sapiens, UniProt P42336); assay: Inhibition of PI3Kα kinase activity, ADP-Glo Assay (Reaction Biology); format: biochemical; conditions: 10 μM ATP; mean of two replicates; Table 12; read-out: Inhibition of kinase activity (as IC50) PICK
[3] = target: ATM (Homo sapiens, UniProt Q13315); assay: ATM Human PIKK Kinase Enzymatic ELISA/EIA Assay, KinaseProfiler (Eurofins Discovery); format: biochemical; conditions: for remaining activity at 1 µM: read-out: ATM, Percent of control at 1 μM; for IC50: KinaseProfiler, Km ATP, Table 15, read-out: Inhibition of PIKK kinase activity ATM
[4] = target: ATR/ATRIP (Homo sapiens, UniProt Q13535); assay: ATR/ATRIP Human PIKK Kinase Enzymatic Radiometric Assay, KinaseProfiler (Eurofins Discovery); format: biochemical; conditions: Km ATP, Table 15, read-out: Inhibition of PIKK kinase activity ATR
Sequence of ATR/ATRIP (Q13535 whole entry): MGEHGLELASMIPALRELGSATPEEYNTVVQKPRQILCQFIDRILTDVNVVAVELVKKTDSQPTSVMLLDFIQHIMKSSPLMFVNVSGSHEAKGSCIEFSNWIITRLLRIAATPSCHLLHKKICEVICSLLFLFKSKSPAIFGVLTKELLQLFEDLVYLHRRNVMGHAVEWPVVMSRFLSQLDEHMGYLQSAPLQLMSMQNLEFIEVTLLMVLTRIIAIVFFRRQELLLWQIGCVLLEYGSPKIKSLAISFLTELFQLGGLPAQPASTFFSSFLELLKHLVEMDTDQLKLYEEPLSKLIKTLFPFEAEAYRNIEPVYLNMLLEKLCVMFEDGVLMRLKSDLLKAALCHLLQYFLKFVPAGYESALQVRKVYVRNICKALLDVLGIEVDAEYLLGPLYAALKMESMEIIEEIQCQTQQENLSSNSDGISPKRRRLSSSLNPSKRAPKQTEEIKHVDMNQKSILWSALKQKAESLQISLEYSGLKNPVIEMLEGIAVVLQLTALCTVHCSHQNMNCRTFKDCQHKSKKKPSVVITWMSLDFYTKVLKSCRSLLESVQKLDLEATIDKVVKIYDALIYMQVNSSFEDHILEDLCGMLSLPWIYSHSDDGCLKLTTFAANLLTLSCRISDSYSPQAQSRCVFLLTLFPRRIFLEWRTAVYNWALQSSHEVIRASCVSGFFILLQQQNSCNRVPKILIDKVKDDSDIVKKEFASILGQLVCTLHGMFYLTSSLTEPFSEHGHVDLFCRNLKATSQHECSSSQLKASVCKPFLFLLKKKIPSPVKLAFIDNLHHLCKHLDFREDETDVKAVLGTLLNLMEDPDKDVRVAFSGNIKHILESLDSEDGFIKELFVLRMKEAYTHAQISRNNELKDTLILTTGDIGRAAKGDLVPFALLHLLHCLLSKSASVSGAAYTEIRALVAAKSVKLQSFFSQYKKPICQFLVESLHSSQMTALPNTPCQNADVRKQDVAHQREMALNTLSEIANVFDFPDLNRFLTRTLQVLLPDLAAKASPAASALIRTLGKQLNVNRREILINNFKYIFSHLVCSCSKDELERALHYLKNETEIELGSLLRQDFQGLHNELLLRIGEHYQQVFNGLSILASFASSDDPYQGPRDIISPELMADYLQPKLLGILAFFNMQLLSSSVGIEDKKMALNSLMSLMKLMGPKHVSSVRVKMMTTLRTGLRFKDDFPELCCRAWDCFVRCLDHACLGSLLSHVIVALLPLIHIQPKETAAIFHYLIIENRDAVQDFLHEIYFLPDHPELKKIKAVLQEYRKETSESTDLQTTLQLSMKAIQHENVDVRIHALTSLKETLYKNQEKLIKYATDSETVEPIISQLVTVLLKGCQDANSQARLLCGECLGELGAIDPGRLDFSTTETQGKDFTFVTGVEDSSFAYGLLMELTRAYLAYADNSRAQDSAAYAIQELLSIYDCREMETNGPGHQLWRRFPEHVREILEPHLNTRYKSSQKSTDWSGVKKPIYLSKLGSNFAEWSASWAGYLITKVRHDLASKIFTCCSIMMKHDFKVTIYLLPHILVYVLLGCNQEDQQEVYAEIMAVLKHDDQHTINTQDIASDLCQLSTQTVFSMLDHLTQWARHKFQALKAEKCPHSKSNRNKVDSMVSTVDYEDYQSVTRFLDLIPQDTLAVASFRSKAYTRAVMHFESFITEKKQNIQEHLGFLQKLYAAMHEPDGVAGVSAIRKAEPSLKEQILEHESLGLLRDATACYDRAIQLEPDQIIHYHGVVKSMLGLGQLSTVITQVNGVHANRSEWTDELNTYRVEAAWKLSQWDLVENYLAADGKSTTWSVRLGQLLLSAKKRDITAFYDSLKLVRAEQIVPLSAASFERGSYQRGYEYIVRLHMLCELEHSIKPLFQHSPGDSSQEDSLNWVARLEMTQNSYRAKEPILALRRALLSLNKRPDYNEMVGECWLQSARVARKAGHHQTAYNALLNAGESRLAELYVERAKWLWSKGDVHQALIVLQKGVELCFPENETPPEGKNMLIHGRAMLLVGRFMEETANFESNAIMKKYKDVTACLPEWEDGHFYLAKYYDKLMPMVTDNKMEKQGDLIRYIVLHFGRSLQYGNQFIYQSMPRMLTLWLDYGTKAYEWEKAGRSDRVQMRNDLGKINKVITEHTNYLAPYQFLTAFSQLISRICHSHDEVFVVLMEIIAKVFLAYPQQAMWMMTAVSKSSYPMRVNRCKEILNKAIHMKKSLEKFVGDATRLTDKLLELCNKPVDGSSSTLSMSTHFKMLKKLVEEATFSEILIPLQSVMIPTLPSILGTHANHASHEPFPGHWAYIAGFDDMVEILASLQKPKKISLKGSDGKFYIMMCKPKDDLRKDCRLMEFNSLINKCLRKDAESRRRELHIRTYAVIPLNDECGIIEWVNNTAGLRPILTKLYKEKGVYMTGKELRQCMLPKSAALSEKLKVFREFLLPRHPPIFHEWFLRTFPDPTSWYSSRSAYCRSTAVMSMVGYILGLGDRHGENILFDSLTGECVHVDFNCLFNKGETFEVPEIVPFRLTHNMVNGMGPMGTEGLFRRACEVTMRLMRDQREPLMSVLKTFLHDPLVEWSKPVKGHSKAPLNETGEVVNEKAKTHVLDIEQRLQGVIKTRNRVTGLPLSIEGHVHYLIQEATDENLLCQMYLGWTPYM
Sequence of ATR/ATRIP (Q8WXE1 whole entry partner): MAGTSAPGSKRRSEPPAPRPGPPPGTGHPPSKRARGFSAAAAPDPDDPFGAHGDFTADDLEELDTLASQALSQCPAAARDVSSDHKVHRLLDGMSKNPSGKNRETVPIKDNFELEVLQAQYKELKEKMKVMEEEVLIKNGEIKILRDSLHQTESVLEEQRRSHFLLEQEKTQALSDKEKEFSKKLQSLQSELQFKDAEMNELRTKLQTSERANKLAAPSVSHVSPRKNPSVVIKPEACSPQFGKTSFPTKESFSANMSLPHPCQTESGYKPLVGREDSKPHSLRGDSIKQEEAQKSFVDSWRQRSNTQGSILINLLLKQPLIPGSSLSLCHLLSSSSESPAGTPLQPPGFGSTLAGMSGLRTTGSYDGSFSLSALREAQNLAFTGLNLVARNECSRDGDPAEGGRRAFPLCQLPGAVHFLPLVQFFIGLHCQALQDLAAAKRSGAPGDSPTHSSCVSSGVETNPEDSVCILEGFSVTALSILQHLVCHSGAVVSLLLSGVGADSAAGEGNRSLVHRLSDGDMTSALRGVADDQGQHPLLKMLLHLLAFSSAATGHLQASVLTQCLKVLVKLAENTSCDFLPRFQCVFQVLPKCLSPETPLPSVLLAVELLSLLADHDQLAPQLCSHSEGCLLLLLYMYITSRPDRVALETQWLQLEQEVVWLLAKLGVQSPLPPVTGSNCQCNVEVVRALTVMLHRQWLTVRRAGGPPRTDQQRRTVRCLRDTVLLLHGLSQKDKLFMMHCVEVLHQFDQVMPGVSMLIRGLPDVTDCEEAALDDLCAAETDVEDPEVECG

[5] = system: UT-SCC-54C cells; assay: Radiosensitisation of UT-SCC-54C HNSCC cells, regrowth (sulforhodamine B) assay, oxic (Table 16); format: cell-based, human; conditions: for IC50: Homo sapiens, read-out: IC50; for S50: compound in combination with 3 Gy of radiation, 50% inhibition of regrowth fraction, UT-SCC-54C
[6] = system: HAP1 cells; assay: Radiosensitisation of HAP1 wild type cells, regrowth assay; format: cell-based, human; conditions: for effect in unirradiated HAP1 cells: 0 Gy; for radiosensitisation / differential growth inhibition of HAP1 cells: 3 Gy cobalt-60 gamma irradiation relative to radiation-only; for IC50: Homo sapiens, HAP1, read-out: HAP1 wt IC50
[7] = system: HAP1/PRKDC−/− cells; assay: Radiosensitisation of DNA-PK null HAP1/PRKDC−/− cells, regrowth assay; format: cell-based, human; conditions: for radiosensitisation / differential growth inhibition of DNA-PK null HAP1 line: 3 Gy, HAP1/PRKDC−/−; for IC50: Homo sapiens, HAP1
[8] = system: UT-SCC-54C cells; assay: Radiosensitisation of UT-SCC-54C HNSCC cells, clonogenic survival, oxic and anoxic (Table 18); format: cell-based, human; conditions: for Plating efficiency drug/no drug: no radiation
[9] = target: human mTOR (Homo sapiens, UniProt P42345); assay: Inhibition of mTOR kinase activity, HotSpot assay, phosphorylation of 4EPB1
[10] = target: Ser2056 of DNA-PKcs (Homo sapiens, UniProt P78527); assay: Inhibition of cellular autophosphorylation at Ser2056 of DNA-PKcs in UT-SCC-54C cells, western immunoblotting; format: cell-based; conditions: oxia, 10 Gy, FIG. 7 (10 μM)
[11] = target: T1, Ser1981 of ataxia-telangiectasia mutated (ATM) (Homo sapiens, UniProt Q13315); assay: Inhibition of phosphorylation of Ser1981 of ATM in UT-SCC-54C cells, western immunoblotting; format: cell-based; conditions: oxia, 10 Gy, FIG. 7 (10 μM)
T1 construct: Ser1981 of ataxia-telangiectasia mutated (ATM) in UT-SCC-54C cells

[12] = system: UT-SCC-54C tumour xenografts; assay: Radiosensitisation of UT-SCC-54C HNSCC tumours, ex vivo clonogenic assay of tumour xenografts; format: in vivo, female NIH-III mice
[13] = system: UT-SCC-54C tumour xenografts; assay: Inhibition of UT-SCC-54C tumour growth, tumour xenograft study; format: in vivo, female NIH-III mice
[14] = 10 μM ATP, 10 μg/ml DNA, mean of two replicates, Table 12, read-out: Inhibition of kinase activity (as IC50) DNA-PK (converted)
[15] = HotSpot assay Reaction Biology Corp., Table 15, read-out: Inhibition of PIKK kinase activity DNA-PK
[16] = Inhibition of PIKK kinase activity mTOR/FRAP (nM), HotSpot assay Reaction Biology Corp., Table 15
[17] = Inhibition of kinase activity (as IC50) mTOR (nM), 10 μM ATP, mean of two replicates, Table 12

Row | SMILES | IC50 [1, 14] | IC50 [1, 15] [µM] | IC50 [2] | IC50 [4] [µM] | IC50 [5] [µM] | S50 ([5]; oxic) [µM] | effect in unirradiated HAP1 cells [6] | radiosensitisation / differential growth inhibition of HAP1 cells [6] | IC50 [6] [µM] | radiosensitisation / differential growth inhibition of DNA-PK null HAP1 line [7] | IC50 [7] [µM] | D10 (radiation dose for 10% surviving fraction) ([8]; 20% O2, compound conc 1 μM) [Gy] | IC50 [9, 16] [nM] | IC50 [9, 17] | also measured
1 | Cc1cc2ncnn2cc1Nc1cc2c(cn1)n(C)c(=O)n2C1CCOCC1 [Compound 125, 3-Methyl-6-((7-methyl-[1,2,4]triazolo[1,5-a]pyridin-6-yl)amino)-1-(tetrahydro-2H-pyran-4-yl)-1,3-dihydro-2H-imidazo[4,5-c]pyridin-2-one] | 0.0143 µM | 0.0143 | 10.7 µM | > 1 | > 10 | 0.67 | little effect | concentration-dependent radiosensitisation | > 10 | did not radiosensitise | > 10 | 2.49 | 43900 | 43900 nM | remaining activity at 1 µM [3]: 74%; D1 (radiation dose for 1% surviving fraction) ([8]; 20% O2, compound conc 1 μM): 4.90 Gy; SER1 (sensitiser enhancement ratio at 1% surviving fraction) ([8]; 20% O2, compound conc 1 μM): 1.77; SER10 (sensitiser enhancement ratio at 10% surviving fraction) ([8]; 20% O2, compound conc 1 μM): 2.17; Plating efficiency drug/no drug ([8]; 20% O2, compound conc 1 μM): 1.02
2 | CC(C)n1c(=O)n(C)c2cnc3cc(F)c(-c4ccc(OCCCN5CCCCC5)nc4)cc3c21 [AZD1393, reference compound] |  |  |  |  |  |  |  |  |  |  |  |  |  |  | inhibition of Ser2056 on DNA-PKcs [10]: did not affect; inhibition of phosphorylation of Ser1981 on ATM [11]: inhibited
3 | Cc1cc(OCc2cnc([N+](=O)[O-])n2C)ccc1Nc1cc2c(cn1)n(C)c(=O)n2C1CCOCC1 [Compound 236, 3-Methyl-6-((2-methyl-4-((1-methyl-2-nitro-1H-imidazol-5-yl)methoxy)phenyl)amino)-1-(tetrahydro-2H-pyran-4-yl)-1,3-dihydro-2H-imidazo[4,5-c]pyridin-2-one] | 0.78 µM and 2.2 µM | 0.78 | 16.2 µM and 52.3 µM | > 100 | > 10 | >10 |  | did not demonstrate any differential growth inhibition | > 10 | did not demonstrate any differential growth inhibition | > 10 | 6.06 | 92900 | 92900 nM and > 100000 nM | IC50 [3]: 57.3 µM; radiosensitisation / differential growth inhibition of UT-SCC-54C cells ([5]; oxic, 0 or 3 Gy, regrowth assay): did not display any differential growth inhibition; D1 (radiation dose for 1% surviving fraction) ([8]; 0% O2, compound conc 1 μM): 17.4 Gy; D10 (radiation dose for 10% surviving fraction) ([8]; 0% O2, compound conc 1 μM): 9.96 Gy; SER1 (sensitiser enhancement ratio at 1% surviving fraction) ([8]; 0% O2, compound conc 1 μM): 1.37; SER10 (sensitiser enhancement ratio at 10% surviving fraction) ([8]; 0% O2, compound conc 1 μM): 1.58; Plating efficiency drug/no drug ([8]; 0% O2, compound conc 1 μM): 1.09; D1 (radiation dose for 1% surviving fraction) ([8]; 20% O2, compound conc 1 μM): 9.41 Gy; SER1 (sensitiser enhancement ratio at 1% surviving fraction) ([8]; 20% O2, compound conc 1 μM): 1.00; SER10 (sensitiser enhancement ratio at 10% surviving fraction) ([8]; 20% O2, compound conc 1 μM): 0.94; Plating efficiency drug/no drug ([8]; 20% O2, compound conc 1 μM): 1.05; SER (sensitiser enhancement ratio) ([8]; UT-SCC-54C, anoxic conditions, clonogenic survival, FIG. 10): 1.51; sensitisation of UT-SCC-54C cells selectively under anoxia ([8]; oxic vs anoxic, clonogenic survival, FIGS. 9 and 10): provide sensitisation of UT-SCC-54C cells selectively under anoxia
4 | Cc1nc2cc(C)c(Nc3cc4c(cn3)n(C)c(=O)n4C3CCOCC3)cc2s1 [Compound 127, 6-((2,5-Dimethylbenzo[d]thiazol-6-yl)amino)-3-methyl-1-(tetrahydro-2H-pyran-4-yl)-1,3-dihydro-2H-imidazo[4,5-c]pyridin-2-one] | 0.00711 µM | 0.00711 | 3.96 µM |  | > 10 | 0.22 | little effect | concentration-dependent radiosensitisation | > 10 | did not radiosensitise | > 10 |  | 5420 | 5420 nM | IC50 [3]: 2.56 µM
5 | CCOC(=O)c1cnc2cc(C)c(Nc3cc4c(cn3)n(C)c(=O)n4C3CCOCC3)cn12 [Compound 129, Ethyl 7-Methyl-6-((3-methyl-2-oxo-1-(tetrahydro-2H-pyran-4-yl)-2,3-dihydro-1H-imidazo[4,5-c]pyridin-6-yl)amino)imidazo[1,2-a]pyridine-3-carboxylate] | 0.00257 µM | 0.00257 | 0.314 µM |  | > 10 | 0.09 | little effect | concentration-dependent radiosensitisation | > 10 | did not radiosensitise | > 10 |  | 18900 | 19000 nM | remaining activity at 1 µM [3]: 79%
6 | COc1ccc(Nc2cc3c(cn2)n(C)c(=O)n3C2CCOCC2)c(C)c1 [Compound 121, 6-((4-Methoxy-2-methylphenyl)amino)-3-methyl-1-(tetrahydro-2H-pyran-4-yl)-1,3-dihydro-2H-imidazo[4,5-c]pyridin-2-one] |  |  |  | > 100 |  | 0.34 | little effect | concentration-dependent radiosensitisation |  |  |  | 2.65 |  |  | D1 (radiation dose for 1% surviving fraction) ([8]; 0% O2, compound conc 1 μM): 11.7 Gy; D10 (radiation dose for 10% surviving fraction) ([8]; 0% O2, compound conc 1 μM): 6.18 Gy; D1 (radiation dose for 1% surviving fraction) ([8]; 20% O2, compound conc 0.33 μM): 1.29 Gy; D10 (radiation dose for 10% surviving fraction) ([8]; 20% O2, compound conc 0.33 μM): 4.63 Gy; D1 (radiation dose for 1% surviving fraction) ([8]; 20% O2, compound conc 3 μM): 3.44 Gy; D10 (radiation dose for 10% surviving fraction) ([8]; 20% O2, compound conc 3 μM): 1.73 Gy; radiosensitisation, clonogenic survival endpoint ([8]; UT-SCC-54C, FIG. 8 and Table 18): concentration-dependent increases in radiosensitisation; radiosensitisation of UT-SCC-54C cells under oxic conditions ([8]; oxic, clonogenic survival, FIG. 9): provides radiosensitisation; reduction in clonogens/gram of tumour, compound with radiation compared to radiation alone ([12]; IP 50 mg/kg 15 min before and 6 h after 13 Gy whole-body irradiation): significant (p=0.005) additional reduction; reduction in clonogens/gram of tumour tissue, compound alone ([12]; IP 2 x 50 mg/kg, no radiation, compared to DMSO control): no reduction; tumour growth inhibition in combination with radiation compared to radiation alone ([13]; PO 2×100 mg/kg, 10 Gy (P=0.007)): significant tumour growth inhibition; tumour growth inhibition in combination with radiation compared to radiation alone ([13]; PO 2×400 mg/kg, 10 Gy (P=0.03)): significant tumour growth inhibition; tumour growth inhibition, compound alone ([13]; PO, compared to DMSO control, FIG. 12A): little additional tumour growth inhibition
7 | COc1ccc([C@@H](O)c2cc(-c3ncnc4cc(N5CCOCC5)ccc34)c(F)cc2Cl)nn1 [Compound M3814, reference compound] |  |  |  |  |  |  |  |  |  |  |  |  |  |  | inhibition of Ser2056 on DNA-PKcs [10]: demonstrated inhibition
